The values that follow come from patent US20240342156A1, “METHODS FOR TREATING PAIN” (Xenon Pharmaceuticals Inc., priority 2019, published 2024).

The subject of data set [1] is rat spinal nerve ligation (SNL)/Chung model of neuropathic pain. The data set is described as follows: Spinal nerve ligation (SNL)/Chung model, tactile allodynia, electronic von Frey test on lesioned paw. It is filed as in vivo. How it is done: (§1) Objective: The efficacy of Compound A was assessed using the rat spinal nerve ligation (SNL)/Chung model of neuropathic pain. The SNL model in rats was developed as described previously (Chung J M, Kim H K, Chung K. “Segmental spinal nerve ligation model of neuropathic pain.” Methods Mol. Med. 99 (2004) 35-45).
(§2) Study Design. Briefly, on Day 0, von Frey and cold plate tests were used for baseline measurements of tactile and cold allodynia respectively. Post-baseline measurements, rats (171-209 g male Sprague Dawley) were anesthetized and an incision at the L4-S2 level was performed to expose the left L5 nerve. A ligature was tied tightly around the L5 nerve (Chung et al.; R. Dost et al., “The anti-hyperalgesic activity of Retigabine is mediated by KCNQ potassium channel activation.” Naunyn-Schmiedeberg's Arch. Pharmacol. 369 (2004) 382-390; Gordon Blackburn-Munro et al., “The anticonvulsant retigabine attenuates nociceptive behaviors in rat models of persistent and neuropathic pain.” Eur. J Pharmacol. 460 (2003) 109-116; and Wu Y J et al., “Discovery of (S,E)-3-(2-fluorophenyl)-N-(1-(3-(pyridin-3-yloxy)phenyl)ethyl)-acrylamide as a potent and efficacious KCNQ2 (Kv7.2) opener for the treatment of neuropathic pain.” Bioorg Med. Chem. Lett. 23 (2013) 6188-91). The wound was then sutured and the rats were allowed to recover. On Day 13, post-surgery baselines for tactile and cold allodynia were measured to verify neuropathic pain. Animals were assigned to treatment groups based on the post-surgery baseline score.
(§3) Dosing: For efficacy testing, Compound A was dosed orally once a day for 5 consecutive days from Day 14-18.
Rats were placed under an inverted acrylic plastic box on a grid floor. The tip of an electronic von Frey probe was then applied with increasing force to the surgery hind paw and the force required to induce paw-withdrawal was automatically recorded. The procedure was carried out 3 times and the mean paw withdrawal force was calculated. The experimenter was double blinded to treatment.

The test system is the same in data set [2]. The data set is described as follows: Spinal nerve ligation (SNL)/Chung model, thermal allodynia, cold plate test on lesioned paw. It is filed as in vivo. The method, then:
as §1
Study Design. Briefly, on Day 0, von Frey and cold plate tests were used for baseline measurements of tactile and cold allodynia respectively. Post-baseline measurements, rats (171-209 g male Sprague Dawley) were anesthetized and an incision at the L4-S2 level was performed to expose the left L5 nerve. […] The wound was then sutured and the rats were allowed to recover. On Day 13, post-surgery baselines for tactile and cold allodynia were measured to verify neuropathic pain. Animals were assigned to treatment groups based on the post-surgery baseline score.
as §3
The cold plate apparatus was maintained at 4±1° C. and was surrounded by an acrylic glass enclosure. Rats were placed on the plate for a period of 5 minutes. The latency to 1st paw-withdrawal, total number of paw withdrawals, and total duration of withdrawal responses were recorded for the surgery hind paw.

The nature of data set [3]: Body weight of SNL rats over the duration of testing. In kind it is in vivo, rat. How it is done: as §2, §3
Where [4] appears, read: Day 18 at 2 h, 20 mg/kg p.o. once daily Day 14-18.
Setting [5] is: Day 14, test 1 h after administration, 128 mg/kg p.o.
Where [6] appears, read: Day 18, test 1 h after administration, 128 mg/kg p.o. once on Day 14 and on Day 18.

For the compound `CCOC(=O)Nc1ccc(NCc2ccc(F)cc2)cc1N` [Retigabine, reference compound], in data set [1] (Day 14 at 2 h, 20 mg/kg p.o.), the “Force inducing paw-withdrawal (g), Delta from baseline compared with Vehicle (p.o.), Δ” value is “+4.0 g”; the “Force inducing paw-withdrawal (g), Delta from baseline, Mean ± s.e.m.” value is reported as “+4.0 ± 2.2 g”; the “Force inducing paw-withdrawal (g), Mean ± s.e.m.” value came to 26.5 ± 2.5 g. In addition, in data set [1] (setting [4]), the “Force inducing paw-withdrawal (g), Delta from baseline compared with Vehicle (p.o.), Δ” value is listed as “+6.4 g”; the “Force inducing paw-withdrawal (g), Delta from baseline, Mean ± s.e.m.” value is given as “+9.2 ± 2.1 g”; the “Force inducing paw-withdrawal (g), Mean ± s.e.m.” value turned out to be 31.8 ± 2.2 g. Further, in data set [2] (Day 14 at 2 h, 20 mg/kg p.o.), the “Latency to first paw-withdrawal (s), Mean ± s.e.m.” value (shortened to “Latency to first paw-withdrawal (s)”) is on record as 272.7 ± 20.1 s; the “Latency to first paw-withdrawal, compared with Vehicle (p.o.), Δ%” value (shortened to “Latency to first paw-withdrawal … (p.o.), Δ%”) is given as “+110%”; the “Number of withdrawal responses, Mean ± s.e.m.” value (“Number … Mean ± s.e.m.” below) is 1.5 ± 1.3; the “Number of withdrawal responses, compared with Vehicle (p.o.), Δ%” value (“Number of withdrawal responses … (p.o.), Δ%” below) was −85%. Further, in data set [2] (Day 14 at 2 h, 20 mg/kg p.o.), the “Total duration of withdrawal responses (s), Mean ± s.e.m.” value stood at 0.3 ± 0.3 s and the “Total duration of withdrawal responses, compared with Vehicle (p.o.), Δ%” value was −86%. In data set [2] (setting [4]), the “Latency to first paw-withdrawal (s)” value was determined as 209.3 ± 36.1 s; the “Latency to first paw-withdrawal … (p.o.), Δ%” value is “+122%”; the “Number … Mean ± s.e.m.” value was 3.4 ± 1.3; the “Number of withdrawal responses … (p.o.), Δ%” value is reported as −69%. In data set [2] (setting [4]), the “Total duration of withdrawal responses (s), Mean ± s.e.m.” value is recorded as 27.3 ± 23.5 s and the “Total duration of withdrawal responses, compared with Vehicle (p.o.), Δ%” value is “+153%”. Besides, the “Body weight (g) (mean ± s.e.m.)” value in data set [3] (Day 14, 20 mg/kg p.o. once daily Day 14-18) worked out at 300.8 ± 4.8 g. The “Body weight (g) (mean ± s.e.m.)” value in data set [3] (Day 15, 20 mg/kg p.o. once daily Day 14-18) is given as 312.6 ± 5.1 g. The “Body weight (g) (mean ± s.e.m.)” value in data set [3] (Day 16, 20 mg/kg p.o. once daily Day 14-18) was found to be 321.1 ± 5.2 g. The “Body weight (g) (mean ± s.e.m.)” value in data set [3] (Day 17, 20 mg/kg p.o. once daily Day 14-18) turned out to be 330.6 ± 5.3 g. Also, the “Body weight (g) (mean ± s.e.m.)” value in data set [3] (Day 18, 20 mg/kg p.o. once daily Day 14-18) is recorded as 336.8 ± 5.7 g.

`CN1CC[C@]23c4c5ccc(O)c4O[C@H]2[C@@H](O)C=C[C@H]3[C@H]1C5.Cl` [Morphine, Morphine hydrochloride, reference compound]: the “Force inducing paw-withdrawal (g), Delta from baseline compared with Vehicle (p.o.), Δ” value in data set [1] (setting [5]) is reported as “+27.4 g”; in data set [1] (setting [6]), “+24.3 g”. Moreover, the “Force inducing paw-withdrawal (g), Delta from baseline, Mean ± s.e.m.” value was “+27.7 ± 5.6 g” in data set [1] (setting [5]) and “+27.1 ± 4.6 g” in data set [1] (setting [6]). Besides, the entries for the “Force inducing paw-withdrawal (g), Mean ± s.e.m.” value in data set [1] (setting [5]) and in data set [1] (setting [6]) were 50.6 ± 5.0 g and 50.0 ± 4.5 g, respectively. Moreover, the “Latency to first paw-withdrawal (s)” value was found to be 201.3 ± 35.8 s in data set [2] (setting [5]) and 235.8 ± 33.2 s in data set [2] (setting [6]). The results for the “Latency to first paw-withdrawal … (p.o.), Δ%” value in data set [2] (setting [5]) and in data set [2] (setting [6]) were “+55%” and “+150%”, respectively. For the same compound, the figures for the “Number … Mean ± s.e.m.” value in data set [2] (setting [5]) and in data set [2] (setting [6]) were 7.9 ± 2.8 and 4.6 ± 2.8, respectively. Also, the “Number of withdrawal responses … (p.o.), Δ%” value in data set [2] (setting [5]) is −22%; in data set [2] (setting [6]) it was −58%. The “Body weight (g) (mean ± s.e.m.)” value was 295.9 ± 4.6 g in data set [3] (Day 14, 128 mg/kg p.o. once on Day 14 and on Day 18); 312.8 ± 5.5 g in data set [3] (Day 15, 128 mg/kg p.o. once on Day 14 and on Day 18); 302.0 ± 5.4 g in data set [3] (Day 16, 128 mg/kg p.o. once on Day 14 and on Day 18); 298.9 ± 5.4 g in data set [3] (Day 17, 128 mg/kg p.o. once on Day 14 and on Day 18); 306.7 ± 5.2 g in data set [3] (Day 18, 128 mg/kg p.o. once on Day 14 and on Day 18).
